Test results as given in paper PMC10762035, “Molecular basis of human trace amine-associated receptor 1 activation” (Nature Communications, 2024).
Where a chain is given by its changes, count along the chain named. “And” between values parts separate entries of the source, which are not always exact repeats. Identical values can stand only once. Like-named read-outs stand apart in the source and are kept apart here.

Experiments:
Assay type in all cases: cell-based
[1] = molecular target: T1, hTA1 T271A (Homo sapiens, UniProt Q96RJ0, T271A); assay: GloSensor cAMP accumulation assay, T271A mutant
T1 construct: expressed in transfected cells; host or cells: HEK293T
T1 sequence (Q96RJ0 1-339 T271A): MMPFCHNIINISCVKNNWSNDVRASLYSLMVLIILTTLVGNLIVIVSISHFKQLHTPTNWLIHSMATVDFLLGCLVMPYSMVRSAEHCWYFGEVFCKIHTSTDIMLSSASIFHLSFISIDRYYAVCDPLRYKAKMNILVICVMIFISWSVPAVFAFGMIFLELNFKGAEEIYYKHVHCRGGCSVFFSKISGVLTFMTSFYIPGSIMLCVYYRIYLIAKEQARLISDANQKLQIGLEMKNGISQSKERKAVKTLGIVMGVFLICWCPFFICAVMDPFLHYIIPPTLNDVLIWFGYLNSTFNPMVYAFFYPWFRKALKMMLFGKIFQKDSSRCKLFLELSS

[2] = molecular target: T2, hTA1 S107C (Homo sapiens, UniProt Q96RJ0, S107C); assay: GloSensor cAMP accumulation assay, S107C mutant; conditions: for EC50 / Emax: n=2; for ΔEmax values (each mutant value - WT average): S107C mutant minus WT average; for Emax values, Mean: S107C mutant, β-PEA = 100, each line an independent experiment, 3 replicates;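 as to all read-outs here: cells transiently co-expressing receptor and GloSensor biosensor, luminescence read after 30 min agonist exposure at room temperature, concentration-response fitted by nonlinear regression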
T2 construct: expressed in transfected cells; host or cells: HEK293T
T2 sequence (Q96RJ0 1-339 S107C): T1 sequence (Q96RJ0 1-339 T271A) with S107C, A271T

[3] = molecular target: T3, hTA1 C88/178S (Homo sapiens, UniProt Q96RJ0, C178S/C88S); assay: GloSensor cAMP accumulation assay, C88S/C178S double mutant; conditions: for Normalized Luminescence Counts (N=2): log[Compound], single replicate values; for Emax values, Mean: normalized (β-PEA = 100); for Emax: read-out: Span ± SEM (Emax normalized to β-PEA)
T3 construct: expressed in transfected cells; host or cells: HEK293T
T3 sequence (Q96RJ0 1-339 C88S/C178S): T1 sequence (Q96RJ0 1-339 T271A) with C88S, C178S, A271T

[4] = molecular target: T4, hTA1 b2N (Homo sapiens, UniProt Q96RJ0); assay: GloSensor cAMP accumulation assay, b2N construct; conditions: for Emax: read-out: Span ± SEM (Emax normalized to β-PEA)
T4 construct: read by me as the first 25 residues of β2AR (N); expressed in transfected cells; host or cells: HEK293T
T4 sequence (Q96RJ0 with tags, fused parts or gaps): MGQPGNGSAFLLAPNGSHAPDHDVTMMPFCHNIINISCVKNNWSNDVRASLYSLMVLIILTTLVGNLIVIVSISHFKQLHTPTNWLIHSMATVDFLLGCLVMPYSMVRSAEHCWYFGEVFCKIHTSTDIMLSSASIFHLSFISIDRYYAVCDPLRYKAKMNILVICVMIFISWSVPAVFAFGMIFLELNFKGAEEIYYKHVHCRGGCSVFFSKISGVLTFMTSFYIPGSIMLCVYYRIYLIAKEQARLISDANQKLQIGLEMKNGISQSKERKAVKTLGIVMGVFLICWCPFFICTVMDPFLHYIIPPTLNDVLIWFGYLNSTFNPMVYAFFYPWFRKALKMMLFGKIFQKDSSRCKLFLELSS

[5] = molecular target: T5, β2AR-Nterm-hTA1-F112^3.41W (CryoEM Construct) (Homo sapiens, UniProt Q96RJ0, F112W); assay: GloSensor cAMP accumulation assay, cryoEM construct; conditions: for Normalized Luminescence Counts (N=2): log[Compound], M = -5, single replicates; for Emax: read-out: Span ± SEM (Emax normalized to β-PEA);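 as to Normalized Luminescence Counts (N=2): normalized to the maximum response of β-PEA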;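 as to all read-outs here: cells transiently co-transfected with the receptor construct and GloSensor cAMP biosensor, luminescence read after 30 min compound exposure at room temperature in the dark as cAMP accumulation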
T5 construct: FLAG (N); 10xHis (N); TEV protease site (N); expressed in transfected cells; host or cells: HEK293T
T5 sequence (Q96RJ0 with tags, fused parts or gaps F112W): as the sequence (Q96RJ0 with tags, fused parts or gaps) above, with F137W counted along it

[6] = T271A mutant, Figure 5B, β-PEA = 100, each row one independent experiment (3 replicates)
[7] = C88S, C178S, each row is one independent experiment, 3 replicates
[8] = Cryo EM Construct minus WT average

CCC(CC1COC(N)=N1)c1ccccc1 (centres unmarked) [Ro5256390]
EC50 ([1]; EC50, T271A, n=2): 14.7 nM
Emax values, Mean [1, 6]: 98.9093
EC50 ([1]; pEC50 values, Mean, T271A mutant, Figure 5B, each row one independent experiment (3 replicates)): 8.67 nM and 24.8 nM
Emax ([1]; read-out: Emax values, Mean, T271A mutant, Figure 5B, β-PEA = 100, each row one independent experiment (3 replicates)): 92.1%
Emax ([1]; read-out: Span ± SEM (Emax normalized to β-PEA), T271A, n=2): 95.5 ± 3.42%
EC50 ([2]; EC50, S107C): 504 nM
decrease in potency vs wild type ([2]; S107C): approximately 100 fold
ΔEmax values (each mutant value - WT average) [2]: -34.2322
Emax values, Mean [2]: 69.072 and 124.486
Emax ([2]; read-out: Span ± SEM (Emax normalized to β-PEA), S107C): 88.8 ± 19.8%
ΔEmax values (each mutant value - WT average), Mean [3, 7]: 2.588 and 13.0349
ΔpEC50 values (each mutant value - WT average), Mean [3, 7]: -0.3451 and 0.337
Normalized Luminescence Counts (N=2) ([3]; C88S, C178S, M = -5): 108.214 and 110.475 and 102.673 and 112.685 and 109.211 and 118.575
Normalized Luminescence Counts (N=2) ([3]; C88S, C178S, M = -5.522): 107.14 and 118.277 and 96.6804 and 111.477 and 99.2423 and 137.304
Normalized Luminescence Counts (N=2) ([3]; C88S, C178S, M = -6): 102.956 and 112.171 and 95.8888 and 120.841 and 90.9352 and 145.46
Normalized Luminescence Counts (N=2) ([3]; C88S, C178S, M = -6.522): 97.5284 and 100.073 and 116.864 and 116.461 and 100.602 and 130.658
Normalized Luminescence Counts (N=2) ([3]; C88S, C178S, M = -7): 99.1114 and 95.1539 and 92.6097 and 130.507 and 95.1643 and 125.523
Normalized Luminescence Counts (N=2) ([3]; C88S, C178S, M = -7.522): 77.3448 and 82.7723 and 86.5603 and 108.607 and 127.336 and 130.961
Normalized Luminescence Counts (N=2) ([3]; C88S, C178S, M = -8): 51.564 and 41.5569 and 41.3873 and 109.966 and 74.6229 and 107.852
Normalized Luminescence Counts (N=2) ([3]; C88S, C178S, M = -8.522): 25.1047 and 27.2531 and 18.3768 and 63.5971 and 68.4303 and 61.3315
Normalized Luminescence Counts (N=2) ([3]; C88S, C178S, M = -9): 12.0447 and 13.3451 and 14.08 and 33.9934 and 34.4465 and 30.5195
Normalized Luminescence Counts (N=2) ([3]; C88S, C178S, M = -9.522): 6.334 and 4.865 and 5.4299 and 15.8687 and 15.4156 and 17.077
Normalized Luminescence Counts (N=2) ([3]; C88S, C178S, M = -10): 1.925 and 5.769 and 1.359 and 9.978 and 13.6031 and 14.0562
Normalized Luminescence Counts (N=2) ([3]; C88S, C178S, M = -10.522): 1.303 and 1.416 and 1.359 and 5.9 and 3.6345 and 7.562
Normalized Luminescence Counts (N=2) ([3]; C88S, C178S, M = -11): 1.02 and 0.285 and 0.3416 and 4.3897 and 3.181 and 3.937
Normalized Luminescence Counts (N=2) ([3]; C88S, C178S, M = -11.522): 1.416 and 0.4547 and 1.585 and 3.03 and 0.6137 and 2.275
Normalized Luminescence Counts (N=2) ([3]; C88S, C178S, M = -12): 0.0589 and 1.303 and -0.3369 and 0.9158 and 0.009559 and 0.7648
Normalized Luminescence Counts (N=2) ([3]; C88S, C178S, M = -12.522): -0.05417 and 0.8504 and 0.7373 and 2.577 and 0.4627 and -0.2925
Emax values, Mean [3, 7]: 105.892 and 116.339
EC50 ([3]; EC50, C88/178S, n=2): 5.38 nM
EC50 ([3]; pEC50 values, Mean, C88S, C178S, each row is one independent experiment, 3 replicates): 11.8 nM and 2.46 nM
Emax [3]: 111 ± 5.22%
EC50 [4]: 1.56 nM
Emax [4]: 97.7 ± 9.34%
ΔpEC50 values (each mutant value - WT average), Mean [5, 8]: 0.183 and 0.4564
Normalized Luminescence Counts (N=2) ([5]; CryoEM Construct): 109.262 and 115.846 and 129.746 and 127.392
EC50 ([5]; EC50, CryoEM Construct, n=2): 2.47 nM
EC50 ([5]; pEC50 values, Mean, Cryo EM Construct, mean of each independent experiment (3 replicates)): 3.5 nM and 1.87 nM
Emax [5]: 102 ± 2.88%

NCCc1ccc(O)cc1 [TYR, tyramine]
reduction in potency vs wild type ([1]; T271A): about 10 fold
EC50 ([1]; T271A mutant, Figure 5B, each row one independent experiment (3 replicates), read-out: pEC50 values, Mean (converted)): 7630 nM and 3080 nM
Emax values, Mean [1, 6]: 138.16 and 109.079
EC50 ([1]; T271A, n=2, read-out: EC50): 4850 nM
Emax ([1]; T271A, n=2, read-out: Span ± SEM (Emax normalized to β-PEA)): 124%
ΔEmax values (each mutant value - WT average) [2]: 8.654
Emax values, Mean [2]: 107.638 and 133.074
EC50 ([2]; S107C, read-out: EC50): 186 nM
Emax ([2]; S107C, read-out: Span ± SEM (Emax normalized to β-PEA)): 120%
EC50 ([3]; C88/178S, n=2, read-out: EC50): 516 nM
ΔEmax values (each mutant value - WT average), Mean [3, 7]: 5.171 and -4.429
ΔpEC50 values (each mutant value - WT average), Mean [3, 7]: -0.1652 and -0.02439
EC50 ([3]; C88S, C178S, each row is one independent experiment, 3 replicates, read-out: pEC50 values, Mean (converted)): 607 nM and 439 nM
Normalized Luminescence Counts (N=2) ([3]; C88S, C178S, M = -5): 80.5108 and 118.73 and 96.3411 and 73.7167 and 119.633 and 101.508
Normalized Luminescence Counts (N=2) ([3]; C88S, C178S, M = -5.522): 83.5638 and 94.9277 and 84.0161 and 70.847 and 65.5606 and 81.5707
Normalized Luminescence Counts (N=2) ([3]; C88S, C178S, M = -6): 61.2318 and 70.3907 and 58.4615 and 74.6229 and 67.8262 and 50.6077
Normalized Luminescence Counts (N=2) ([3]; C88S, C178S, M = -6.522): 35.2248 and 33.0764 and 35.0552 and 41.5453 and 51.665 and 30.8216
Normalized Luminescence Counts (N=2) ([3]; C88S, C178S, M = -7): 17.4722 and 16.0588 and 18.7726 and 21.6082 and 20.853 and 15.4156
Normalized Luminescence Counts (N=2) ([3]; C88S, C178S, M = -7.522): 4.582 and 7.069 and 6.674 and 4.541 and 4.692 and 3.332
Normalized Luminescence Counts (N=2) ([3]; C88S, C178S, M = -8): 0.3416 and 1.077 and 0.3981 and 2.124 and 2.577 and 4.239
Normalized Luminescence Counts (N=2) ([3]; C88S, C178S, M = -8.522): 0.2285 and 0.4547 and 1.1331 and 0.9158 and 0.6137 and 2.577
Normalized Luminescence Counts (N=2) ([3]; C88S, C178S, M = -9): -0.6195 and -0.1107 and 0.3416 and -1.501 and -1.35 and 3.6345
Normalized Luminescence Counts (N=2) ([3]; C88S, C178S, M = -9.522): -0.5065 and -0.563 and -0.05417 and -0.8967 (2×) and -1.652
Normalized Luminescence Counts (N=2) ([3]; C88S, C178S, M = -10): -0.1107 and -0.9588 (2×) and -1.35 and -0.4436 and -0.1415
Normalized Luminescence Counts (N=2) ([3]; C88S, C178S, M = -10.522): -0.6195 and -0.1672 and 0.0589 and -1.954 and -1.048 and 1.067
Normalized Luminescence Counts (N=2) ([3]; C88S, C178S, M = -11): -0.05417 and 0.5677 and 0.3981 and -1.652 and -0.8967 and 0.7648
Normalized Luminescence Counts (N=2) ([3]; C88S, C178S, M = -11.522): 0.7373 and 0.9635 and 0.285 and -0.8967 (2×) and 0.1606
Normalized Luminescence Counts (N=2) ([3]; C88S, C178S, M = -12): -0.563 and 1.02 and 0.7939 and -0.1415 and -1.048 and 0.7648
Normalized Luminescence Counts (N=2) ([3]; C88S, C178S, M = -12.522): 0.2285 and 0.8504 and 0.3981 and -0.8967 and -0.4436 and -1.199
Emax values, Mean [3, 7]: 104.155 and 94.5547
Emax [3]: 99.3 ± 4.8%
EC50 ([4]; b2N, n=2, read-out: EC50): 151 nM
Emax ([4]; b2N, n=2): 99.5 ± 1%
ΔEmax values (each mutant value - WT average), Mean [5, 8]: 14.87 and 14.1384
ΔpEC50 values (each mutant value - WT average), Mean [5, 8]: 0.1106 and 0.3686
Emax values, Mean ([5]; Cryo EM Construct, mean of each independent experiment (3 replicates)): 0.3686
EC50 ([5]; Cryo EM Construct, mean of each independent experiment (3 replicates), read-out: pEC50 values, Mean (converted)): 322 nM and 178 nM
Normalized Luminescence Counts (N=2) ([5]; CryoEM Construct): 108.729 and 109.99 and 112.27 and 114.944
EC50 ([5]; CryoEM Construct, n=2, read-out: EC50): 235 nM
Emax ([5]; CryoEM Construct, n=2): 113 ± 2.5%
EC50 ([5]; CryoEM Construct, n=2, read-out: pEC50 ± SEM (converted)): 240 nM
